Where a name gives a salt, the structure may show the parent alone.
Key:
[1] = Solubility/stability of injectable cinnamic acid 6 mg/mL in diluents (HPLC, ICH); type: physicochemical; details: zero day
Protocol: 6 mg of cinnamic acid was dissolved in 300 μl of 100% ethanol, sonicated for 5 min and then diluted to 1 ml with 5% PEG 400/5% DMSO/5% ethyl lactate to obtain a clear solution of cinnamic acid in the injectable form (injectable formulation). The formulation was evaluated for stability as per ICH guidelines.

[2] = test system: Cyclophosphamide induced neutropenia; test: Cyclophosphamide induced neutropenia, hematological parameters (Example 10); type: in vivo, Female Swiss Albino mice; details: for Anti-neutropenic activity (words): inference from table 8A
Protocol: (§1) • 1. To induce neutropenia by administration of cyclophosphamide. • 2.
(§2) Materials: Female Swiss Albino mice weighing between 25-27 g was procured from Global Bioresearch Solutions Pvt Ltd., Pune.
(§3) On day 0, blood was withdrawn from all animals for basal hematological parameters. All the groups of animals except placebo group were injected with 150 mg/kg of cyclophosphamide through intraperitoneal route (i.p.), while group 1 was injected with water for injection, i.p. On Day 3, blood was withdrawn from all animals for Total and differential count (neutrophils, lymphocytes, and monocytes). The animals of group 2 to 7 were dosed with one additional dose of 100 mg/kg cyclophosphamide on Day 4. […] The cyclophosphamide control group was injected with water for injection from day 5 to day 9. On day 10, blood was withdrawn from all animals for total and differential count (neutrophils, lymphocytes, and monocytes), platelets, liver parameters AST (aspartate aminotransferase), ALT (alanine aminotransferase), and renal parameters—serum creatinine, blood urea nitrogen and uric acid.
(§4) • Pure Picroside 1—1 tablet was dissolved in 0.1 ml of sterile water for injection and 0.1 ml was injected as subcutaneous injection. • The degraded Picroside 1 without salt (cinnamic acid of the present disclosure)—1 tablet was dissolved in 0.1 ml of sterile water for injection and 0.1 ml was injected as subcutaneous injection. • The Cinnamic acid low dose (0.6 mg/tablet) treated tablet was dissolved in 0.1 ml of sterile water for injection and 0.1 ml was injected as subcutaneous injection. • The Cinnamic acid high dose treated (6 mg/tablet) tablet was dissolved in 0.1 ml of sterile water for injection and 0.1 ml was injected as subcutaneous injection.

[3] = test system: Cyclophosphamide induced hepatotoxicity and renal changes; test: Hepatic and renal parameters in cyclophosphamide induced neutropenia (Example 10); type: in vivo, Female Swiss Albino mice; details: for BUN (blood urea nitrogen) / SGOT Serum glutamic oxaloacetic transaminase / SGPT (Serum glutamic pyruvic transaminase) / Serum Creatinine / Uric acid: day 10
Protocol: as §1, §2, §3, §4

[4] = test system: neutropenia; test: Efficacy dose for anti-neutropenic activity and human equivalent dose; type: in vivo, mice
Protocol: The animal efficacy dose of the cinnamic acid prepared in accordance with the present disclosure was 0.6 mg/mice or 0.6 mg/25 g or 6 mg/250 g or 24 mg/kg mice.
The human dose of the cinnamic acid prepared in accordance with the present disclosure, AED (animal equivalent dose) was divided by 12.3=24/12.3=1.95 mg/kg HED (human equivalent dose).
The animal efficacy dose of the cinnamic acid prepared in accordance with the present disclosure was 6 mg/25 g or 60 mg/250 g mice or 240 mg cinnamic acid/kg.
The human dose of the cinnamic acid prepared in accordance with the present disclosure, AED (animal equivalent dose) was divided by 12.3=240/12.3=19.51 mg/kg HED (human equivalent dose).

[5] = Day 0, basal, 0.6 mg/tablet low dose
[6] = Day 0, basal, 6 mg/tablet high dose
[7] = Day 3, after cyclophosphamide, before treatment, 0.6 mg/tablet low dose
[8] = Day 3, after cyclophosphamide, before treatment, 6 mg/tablet high dose
[9] = Day 10, treated day 5 for 5 days, 0.6 mg/tablet low dose, 1 tablet per animal per day
[10] = Day 10, treated day 5 for 5 days, 6 mg/tablet high dose, 1 tablet per animal per day
[11] = vs CP control, day 10, cinnamic acid at both 0.6 mg/tablet low dose and 6 mg/tablet high dose
[12] = 0.6 mg/tablet low dose, 1 tablet per animal per day for 5 days
[13] = 6 mg/tablet high dose, 1 tablet per animal per day for 5 days
[14] = vs CP control, cinnamic acid at both 0.6 mg/tablet low dose and 6 mg/tablet high dose
[15] = Day 0, basal, G-CSF 2 μg, Picroside tablets groups
[16] = Day 3, after cyclophosphamide, before treatment, G-CSF 2 μg, Picroside tablets groups
[17] = Day 10, treated day 5 for 5 days, G-CSF 2 μg s.c., others 1 tablet per animal per day
[18] = G-CSF 2 μg s.c., others 1 tablet per animal per day for 5 days

O=C(O)C=Cc1ccccc1 [The commercial synthetic Cinnamic acid, 3-Phenyl-2-propenoic acid]
HPLC area ([1]; 30% Ethanol with 3.5% PEG400): 3128043 | HPLC area ([1]; 30% Ethanol with 5% DMSO): 3276296 | HPLC area ([1]; 30% Ethanol with 5% Ethyl lactate): 3175284 | HPLC area ([1]; 100% Methanol): 3379040 | % Lymphocytes [2, 5]: 45.17% | % Monocytes [2, 5]: 6.66% | % Neutrophils [2, 5]: 40.33% | No of Platelets [2, 5]: 736600 per cu · mm of blood | Total WBC Count [2, 5]: 7465 per cu · mm of blood | % Lymphocytes [2, 6]: 46.83% | % Monocytes [2, 6]: 6.82% | % Neutrophils [2, 6]: 40.17% | No of Platelets [2, 6]: 772500 per cu · mm of blood | Total WBC Count [2, 6]: 7237 per cu · mm of blood | % Lymphocytes [2, 7]: 83.67% | % Monocytes [2, 7]: 1.82% | % Neutrophils [2, 7]: 6.50% | No of Platelets [2, 7]: 630500 per cu · mm of blood | Total WBC Count [2, 7]: 2289 per cu · mm of blood | % Lymphocytes [2, 8]: 84% | % Monocytes [2, 8]: 1.66% | % Neutrophils [2, 8]: 6.333% | No of Platelets [2, 8]: 637000 per cu · mm of blood | Total WBC Count [2, 8]: 2306 per cu · mm of blood | % Lymphocytes [2, 9]: 61% | % Monocytes [2, 9]: 5.82% | % Neutrophils [2, 9]: 27.67% | No of Platelets [2, 9]: 641400 per cu · mm of blood | Total WBC Count [2, 9]: 4460 per cu · mm of blood | % Lymphocytes [2, 10]: 53% | % Monocytes [2, 10]: 5.82% | % Neutrophils [2, 10]: 33.17% | No of Platelets [2, 10]: 660300 per cu · mm of blood | Total WBC Count [2, 10]: 5389 per cu · mm of blood | Anti-neutropenic activity (words) ([2]; listed as The commercial synthetic cinnamic acid): active to address neutropenia | Effect on % lymphocytes [2, 11]: significant (p<0.001) decrease in % lymphocytes | Effect on % monocytes [2, 11]: significantly (p<0.001) reversed | Effect on % neutrophil [2, 11]: significantly (p<0.001) alleviated the cyclophosphamide-induced neutropenia | Effect on platelet count [2, 11]: did not cause significant change in the platelet count | Effect on total WBC count [2, 11]: significantly (p<0.001) reversed the cyclophosphamide induced decrease in WBC count | BUN (blood urea nitrogen) [3, 12]: 9.533 mmol/L | SGOT Serum glutamic oxaloacetic transaminase [3, 12]: 33.67 IU/L | SGPT (Serum glutamic pyruvic transaminase) [3, 12]: 36.5 IU/L | Serum Creatinine [3, 12]: 38.5 µM | Uric acid [3, 12]: 16.82 mg/L | BUN (blood urea nitrogen) [3, 13]: 9.383 mmol/L | SGOT Serum glutamic oxaloacetic transaminase [3, 13]: 29.33 IU/L | SGPT (Serum glutamic pyruvic transaminase) [3, 13]: 32.17 IU/L | Serum Creatinine [3, 13]: 37.5 µM | Uric acid [3, 13]: 16.66 mg/L | Effect on BUN level [3, 14]: significant (p<0.001) decrease in BUN level | Effect on SGOT level [3, 14]: significant (p<0.001) decrease in SGOT | Effect on SGPT level [3, 14]: significant reversal (p<0.001) | Effect on serum creatinine level [3, 14]: significant (p<0.001) decrease in creatinine level | Effect on uric acid level [3, 14]: significant reversal (p<0.001) of uric acid level

O=C(O)C=Cc1ccccc1 [The degraded Picroside 1 without salt, cinnamic acid]
% Lymphocytes [2, 15]: 46.5% | % Monocytes [2, 15]: 6.50% | % Neutrophils [2, 15]: 38.83% | No of Platelets [2, 15]: 759400 per cu · mm of blood | Total WBC Count [2, 15]: 7644 per cu · mm of blood | % Lymphocytes [2, 16]: 83.5% | % Monocytes [2, 16]: 1.82% | % Neutrophils [2, 16]: 6.667% | No of Platelets [2, 16]: 624000 per cu · mm of blood | Total WBC Count [2, 16]: 2253 per cu · mm of blood | % Lymphocytes [2, 17]: 58.83% | % Monocytes [2, 17]: 5.50% | % Neutrophils [2, 17]: 25.17% | No of Platelets [2, 17]: 631900 per cu · mm of blood | Total WBC Count [2, 17]: 3705 per cu · mm of blood | Anti-neutropenic activity (words) ([2]; listed as the degraded Picroside 1 without salt): shows better anti-neutropenic activity | BUN (blood urea nitrogen) [3, 18]: 9.467 mmol/L | SGOT Serum glutamic oxaloacetic transaminase [3, 18]: 27.5 IU/L | SGPT (Serum glutamic pyruvic transaminase) [3, 18]: 30.33 IU/L | Serum Creatinine [3, 18]: 41 µM | Uric acid [3, 18]: 21.50 mg/L | Hepatic and renal parameters in neutropenic animal model ([3]; inference from table 8B, as compared to GCSF): improved hepatic and renal parameters | animal efficacy dose for anti-neutropenic activity ([4]; from 0.6 mg/mice (0.6 mg/25 g)): 24 mg/kg | animal efficacy dose ([4]; from 6 mg/25 g mice): 240 mg cinnamic acid/kg

Source: US20240350441A1, “PHARMACEUTICAL FORMULATION AND A PROCESS FOR ITS PREPARATION” (SAVA HEALTHCARE LTD, priority 2021, published 2024)
